Read-outs that look alike come from different tables or passages of the source.
Assays:
E. coli apo-SdhA = molecular target: T1, E. coli apo-SdhA (Escherichia coli, UniProt P0AC41); experiment: biochemical; format: biochemical; conditions: for Covalent FAD attachment to apo-SdhA, SdhE-dependent: +SdhE 10.4 μM; for Covalent FAD attachment to apo-SdhA, SdhE-dependent / Covalent FAD attachment to apo-SdhA, SdhE-independent: ligand 20 mM
T1 construct: His6 (N); made in house; host or cells: E. coli RP437 ΔsdhE (RP-E), plasmid pCA24N-SdhA
T1 sequence (P0AC41 whole entry): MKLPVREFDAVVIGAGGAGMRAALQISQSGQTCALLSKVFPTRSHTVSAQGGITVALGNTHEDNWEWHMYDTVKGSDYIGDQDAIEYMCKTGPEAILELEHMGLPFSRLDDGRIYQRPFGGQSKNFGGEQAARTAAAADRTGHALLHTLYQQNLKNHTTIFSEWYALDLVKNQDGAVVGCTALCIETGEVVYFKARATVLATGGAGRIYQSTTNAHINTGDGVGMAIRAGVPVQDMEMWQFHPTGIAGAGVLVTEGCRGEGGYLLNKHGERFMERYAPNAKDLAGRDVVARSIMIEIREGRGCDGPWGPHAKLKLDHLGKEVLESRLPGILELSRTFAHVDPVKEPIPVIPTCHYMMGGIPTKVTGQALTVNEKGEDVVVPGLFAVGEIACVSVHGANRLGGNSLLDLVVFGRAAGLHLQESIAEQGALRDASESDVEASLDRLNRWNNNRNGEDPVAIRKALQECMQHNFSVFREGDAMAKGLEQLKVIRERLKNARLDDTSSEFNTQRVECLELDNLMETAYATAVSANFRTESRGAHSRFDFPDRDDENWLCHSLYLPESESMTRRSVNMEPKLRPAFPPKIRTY
Experimental: (§1) Unless specified, the reaction was performed in 50 mM potassium phosphate (pH 7.0) at 30 °C for 1 h. […] The reaction was started after addition of the appropriate flavinylation-promoting ligand at the as-indicated concentration. At different time points, the samples were mixed with 4× SDS loading buffer (Bio-Rad), and the sample loaded onto an SDS-PAGE gel (Bio-Rad; Any KdA). Following protein separation, the gel was incubated in 10% acetic acid/20% ethanol for 5 min. Upon illumination with UV light, complex II flavinylated flavoprotein is visible because of the fluorescence of the covalently bound flavin. The in-gel fluorescence of covalently attached FAD was detected using a Safe Imager 2.0 blue-light transilluminator (Thermo Fisher Scientific). The gel was then rinsed with water for 5 min and stained with Instant Blue stain (Expedeon). ImageJ (National Institutes of Health) software was used for quantification of covalently bound FAD levels and relative protein ratios. The isolated holo-SdhA/FrdA or SDHA–SDHAF2 complex were used as 100% covalent flavinylated controls. […] To do that, upon addition of fumarate, the sample (200 μl) was quickly mixed and filled into an automatic pipette. Each sample (15 μl) was then injected into a vial containing 5 μl of 4× SDS loading gel. This allowed collection of time points that are at 10 to 15 s intervals.

E. coli apo-FrdA = molecular target: T2, E. coli apo-FrdA (Escherichia coli, UniProt P00363); format: biochemical; conditions: ligand 20 mM, FAD 100 μM, 1 h, 30 °C; for Covalent FAD attachment to apo-FrdA, SdhE-dependent: +SdhE 10.4 μM
T2 construct: His6 (N); made in house; host or cells: E. coli RP437 ΔsdhE (RP-E), plasmid pCA24N-FrdA
T2 sequence (P00363 whole entry): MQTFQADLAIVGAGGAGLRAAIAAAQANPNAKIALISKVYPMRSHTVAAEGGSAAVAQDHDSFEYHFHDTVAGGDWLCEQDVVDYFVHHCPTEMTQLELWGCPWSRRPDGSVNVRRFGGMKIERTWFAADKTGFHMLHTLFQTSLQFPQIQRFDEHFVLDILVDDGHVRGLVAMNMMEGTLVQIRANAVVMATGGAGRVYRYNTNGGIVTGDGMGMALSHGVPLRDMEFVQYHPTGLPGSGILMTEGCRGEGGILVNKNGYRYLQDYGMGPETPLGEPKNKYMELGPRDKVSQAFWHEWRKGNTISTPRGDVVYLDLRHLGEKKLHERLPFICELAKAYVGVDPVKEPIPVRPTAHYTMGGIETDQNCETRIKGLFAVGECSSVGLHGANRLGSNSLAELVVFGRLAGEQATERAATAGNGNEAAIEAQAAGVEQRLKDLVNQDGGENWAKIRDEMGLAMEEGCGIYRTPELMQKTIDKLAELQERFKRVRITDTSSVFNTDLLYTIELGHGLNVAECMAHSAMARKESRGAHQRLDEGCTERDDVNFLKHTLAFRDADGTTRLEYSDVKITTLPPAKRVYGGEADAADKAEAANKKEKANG
Experimental: as §1

[1] = system: Thermus thermophilus succinate dehydrogenase; conditions: no sdhE gene; cited from earlier work
human apo-SDHA [2] = molecular target: T3, human apo-SDHA (Homo sapiens, UniProt P31040); experiment: In vitro covalent flavinylation of human apo-SDHA; format: biochemical
T3 construct: His6 (N); made in house; host or cells: E. coli BL21(DE3), plasmid pQE-hSDHA
T3 sequence (P31040 43-664): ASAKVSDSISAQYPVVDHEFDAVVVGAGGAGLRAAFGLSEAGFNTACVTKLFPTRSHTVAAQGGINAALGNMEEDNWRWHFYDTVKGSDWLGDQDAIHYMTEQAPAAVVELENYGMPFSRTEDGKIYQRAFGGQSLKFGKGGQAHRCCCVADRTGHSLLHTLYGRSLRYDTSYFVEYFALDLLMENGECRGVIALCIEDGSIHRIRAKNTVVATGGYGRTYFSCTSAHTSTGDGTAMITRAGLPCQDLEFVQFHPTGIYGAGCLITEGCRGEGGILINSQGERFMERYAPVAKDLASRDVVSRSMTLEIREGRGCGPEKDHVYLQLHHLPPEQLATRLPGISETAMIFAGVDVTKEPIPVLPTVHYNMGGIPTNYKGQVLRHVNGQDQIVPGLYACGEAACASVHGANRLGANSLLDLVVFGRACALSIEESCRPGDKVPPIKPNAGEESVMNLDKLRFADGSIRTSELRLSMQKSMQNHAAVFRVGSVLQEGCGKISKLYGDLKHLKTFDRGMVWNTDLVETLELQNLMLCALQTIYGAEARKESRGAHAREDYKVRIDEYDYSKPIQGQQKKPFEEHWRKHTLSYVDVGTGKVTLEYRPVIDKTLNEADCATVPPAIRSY
Experimental: as §1

human apo-SDHA [3] = molecular target: T3, human apo-SDHA; set-up: method as in PMID 32887801; conditions: cited from earlier work
holo-SdhA–SdhE = molecular target: holo-SdhA–SdhE; set-up: method as in PMID 29348404; conditions: read-out: Kd for fumarate, holo-SdhA–SdhE complex; holo-SdhA with covalent FAD; cited from earlier work
[4] = system: Sulfolobus tokodaii succinate dehydrogenase; conditions: no sdhE gene; cited from earlier work
apo-SdhA [5] = molecular target: T4, apo-SdhA (Escherichia coli, UniProt P0AC41); experiment: Reduction/oxidation of FAD during SdhE-dependent flavinylation (absorbance at 452 nm); format: biochemical; set-up: His6 (N); made in house; host or cells: apo-SdhA: E. coli RP437 ΔsdhE (pCA24N-SdhA); conditions: 10 mM fumarate; 25 μM apo-SdhA, 20 μM FAD, 40 μM SdhE, 30 °C
Experimental: Spectral measurements and kinetics were performed by using an Agilent […] UV–visible spectrophotometer. For kinetic measurements, whole spectra (1 nm increments) were collected during the reaction at 1 to 5 s intervals.
Target sequence in this assay (P64559 whole entry): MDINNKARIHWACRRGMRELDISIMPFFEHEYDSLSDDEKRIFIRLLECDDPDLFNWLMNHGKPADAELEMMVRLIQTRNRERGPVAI
Target sequence in this assay (P0AC41 whole entry): as the sequence (P0AC41 whole entry) above

apo-SdhA [6] = molecular target: T4, apo-SdhA; experiment: Hydrogen peroxide formation upon covalent flavinylation of SdhA (Amplex UltraRed); format: biochemical; set-up: His6 (N); made in house; host or cells: apo-SdhA: E. coli RP437 ΔsdhE (pCA24N-SdhA); conditions: apo-SdhA 2.8 μM, FAD 2.5 μM, SdhE 4.8 μM
Experimental: Upon covalent attachment, the flavin in SdhA became reduced and can be reoxidized by oxygen with formation of hydrogen peroxide. Amplex UltraRed was used to monitor the hydrogen peroxide formed. […] The reaction was started by addition of either 10 μM or 10 mM fumarate and hydrogen peroxide monitored by following the oxidation of Amplex UltraRed (567 nm) using an Agilent 8453 spectrophotometer.
Target sequence in this assay (P64559 whole entry): as the sequence (P64559 whole entry) above
Target sequence in this assay (P0AC41 whole entry): as the sequence (P0AC41 whole entry) above

[7] = set-up: method as in PMID 4752947, PMID 6263261, PMID 15884941; conditions: free FAD in solution; cited from earlier work
apo-SdhA [8] = molecular target: T4, apo-SdhA; format: biochemical; set-up: His6 (N); made in house; host or cells: apo-SdhA: E. coli RP437 ΔsdhE (pCA24N-SdhA); conditions: 30 min at 37 °C; FAD 100 μM, SdhE 10.4 μM
Target sequence in this assay (P64559 whole entry): as the sequence (P64559 whole entry) above
Target sequence in this assay (P0AC41 whole entry): as the sequence (P0AC41 whole entry) above
Experimental: Apo-SdhA (2.8 μM) or apo-SDHA (4.3 μM) in 40 mM Hepes (pH 7.5) was incubated at 37 °C as follows: (1) no addition; (2) FAD (100 μM); (3) the assembly factors SdhE (10.4 μM) or SDHAF2 (8.4 μM); and (4) FAD (100 μM) plus appropriate assembly factors at the aforementioned concentrations. The incubation time was 15 min for SDHA and 30 min for SdhA. Corresponding control samples (with no additions) were held at 4 °C for the same time. After the incubation, the samples were transferred to 4 °C, and to all samples, including the control, either FAD and/or the assembly factor was added so that each sample contains 100 μM FAD and the appropriate assembly factor. Then 0.5 mM fumarate is added to each sample to initiate the flavinylation reaction. After 30 min incubation at 30 °C, 4× SDS sample buffer was added, and then in-gel fluorescence was determined as described previously.

apo-SdhA [9] = molecular target: T4, apo-SdhA; experiment: Determination of Kd for FAD by ultrafiltration; format: binding; set-up: His6 (N); made in house; host or cells: E. coli RP437 ΔsdhE (RP-E), plasmid pCA24N-SdhA; conditions: 50 mM Hepes pH 7.0, 21 °C
Experimental: The method is adapted from Mortarino et al. ([36]). […] The exact volume and the concentration of free flavin (ε^450 = 11.3 mM^−1 cm^−1) in the filtrate was measured, and it is assumed the free flavin (FAD^free) concentrations are the same in the filtrate and concentrated fractions. The total FAD in the concentrated fraction was calculated, and the excess over FAD^free corresponded to SdhA–noncovalent FAD. The Kd = [FAD^free][apo-SdhA]/[SdhA–FAD] was calculated from the amount of apo-SdhA determined by total protein concentration. The data are expressed as mean ± SD of four to five independent measurements.
Target sequence in this assay (P0AC41 whole entry): as above

[10] = +SdhE, 50 mM potassium phosphate pH 7.0, 0.1 mM FAD, 30 °C
[11] = read-out: k, ligand concentration for half-maximal flavinylation after 1 h incubation, +SdhE, 50 mM potassium phosphate pH 7.0, 0.1 mM FAD, 30 °C, 1 h

Row | Structure (SMILES) | Covalent FAD attachment to apo-SdhA, SdhE-dependent (E. coli apo-SdhA; FAD 100 μM, 1 h, 30 °C) | Covalent FAD attachment to apo-FrdA, SdhE-dependent (E. coli apo-FrdA) | K, apparent first-order rate constant of covalent flavinylation, +SdhE (E. coli apo-SdhA; [10]) [min⁻¹] | Covalent FAD attachment to apo-FrdA, SdhE-independent (E. coli apo-FrdA) | Initiation of flavinylation in Thermus thermophilus [1] | Covalent FAD attachment to apo-SdhA, SdhE-independent (E. coli apo-SdhA; −SdhE, FAD 100 μM, 1 h, 30 °C) | further results
1 | CC(=O)C(=O)O [Pyruvate] | able to induce | able to induce | – | – | – | – | –
2 | N[C@@H](CC(=O)O)C(=O)O [Aspartate, L-aspartate] | high levels | high levels | 0.1 | partially effective | – | – | EC50 (E. coli apo-SdhA): 26 µM
3 | O=C(O)CC(O)(CC(=O)O)C(=O)O [citrate] | able to induce | able to induce | – | – | – | – | –
4 | O=C(O)CC(=O)C(=O)O [oxaloacetate] | high levels | high levels | – | partially effective | quite proficient | – | –
5 | CC(=O)O [acetate] | ~30% | ~30% | – | – | – | – | –
6 | O=C(O)CC(O)C(=O)O (centres unmarked) [Malate, malate] | high levels | high levels | 0.3 | – | quite proficient | partially effective | EC50 (E. coli apo-SdhA): 10 µM
7 | O=C(O)/C=C/C(=O)O [Fumarate] | high levels | high levels | 1.7 | complete | quite proficient | complete | Fumarate concentration giving complete flavinylation of apo-SdhA (E. coli apo-SdhA; +SdhE, apo-SdhA 6 μM, FAD 100 μM, 1 h, 30 °C): ~1 µM; EC50 (E. coli apo-SdhA; [11]): < 1 µM; k, apparent first-order rate constant of covalent flavinylation, −SdhE (E. coli apo-SdhA; −SdhE, 50 mM potassium phosphate pH 7.0, 0.1 mM FAD, 30 °C): 0.1 min⁻¹; k, apparent first-order rate constant of covalent flavinylation, −SdhE (E. coli apo-SdhA; −SdhE, 50 mM potassium phosphate pH 7.0, 0.1 mM FAD, 30 °C, listed as fumarate): 0.095 min⁻¹; Saturation level of SDHAF2-independent flavinylation relative to SDHAF2-dependent flavinylation (human apo-SDHA [2]; −SDHAF2, 60 mM fumarate, 100 μM FAD, time course): ~70%; k, rate of covalent flavinylation of SDHA, − SDHAF2 (human apo-SDHA [2]; −SDHAF2, 60 mM fumarate, 100 μM FAD, assuming 70% of protein capable of flavinylation): 0.032 min⁻¹; EC50 (human apo-SDHA [2]; −SDHAF2, fumarate concentration for 50% flavinylation, read-out: K (fum), − SDHAF2): 12000 µM; SDHAF2-independent flavinylation of SDHA relative to flavinylation in the presence of SDHAF2 (human apo-SDHA [2]; −SDHAF2, ligand 20 mM, FAD 100 μM, 1 h, 37 °C): ~40%; EC50 (human apo-SDHA [3]; +SDHAF2, read-out: Concentration of fumarate needed to achieve 50% flavinylation, with SDHAF2): 16 µM; k, rate of covalent flavinylation of SDHA, + SDHAF2 (human apo-SDHA [3]): 0.15 min⁻¹; Kd (holo-SdhA–SdhE): 64 µM; Initiation of flavinylation in Sulfolobus tokodaii [4]: proficient flavinylation; k app, fast phase (reduction of FAD) (apo-SdhA [5]): ~7 min⁻¹; k app, second slower phase (reoxidation of reduced flavin) (apo-SdhA [5]): ~0.1 min⁻¹; Hydrogen peroxide formation on induction of flavinylation (apo-SdhA [6]; 10 μM fumarate): significant increase in hydrogen peroxide; Hydrogen peroxide formation on induction of flavinylation (apo-SdhA [6]; 10 mM fumarate): very low release of hydrogen peroxide
8 | O=C(O)CC(=O)O [malonate] | ~30% | ~30% | – | – | – | – | –
9 | Cc1cc2nc3c(=O)[nH]c(=O)nc-3n(C[C@H](O)[C@H](O)[C@H](O)COP(=O)(O)OP(=O)(O)OC[C@H]3O[C@@H](n4cnc5c(N)ncnc54)[C@H](O)[C@@H]3O)c2cc1C [FAD] | – | – | – | – | – | – | FAD requirement for maximum flavinylation of SdhA (E. coli apo-SdhA; +SdhE, fumarate 10 mM, apo-SdhA 6 μM, 1 h, 30 °C): stoichiometric ratios of FAD to apo-SdhA; EC50 (E. coli apo-SdhA; −SdhE, fumarate 10 mM, apo-SdhA 6 μM, 1 h, 30 °C, read-out: FAD concentration for half-maximal flavinylation of SdhA): ~20 µM; Increase in FAD concentration required for 50% flavinylation without SDHAF2 versus SDHAF2-dependent reaction (human apo-SDHA [2]; fumarate-only SDHA flavinylation): fivefold; Redox potential Em of free FAD [7]: −219 mV; Protection of apo-SdhA against thermal inactivation of the flavinylation reaction (apo-SdhA [8]): does not afford enhanced stability and protection; Kd (apo-SdhA [9]; read-out: Estimated apparent Kd for FAD, apo-SdhA in the presence of SdhE, +SdhE 12.5 μM): 1.3 ± 0.5 µM; Kd (apo-SdhA [9]; without SdhE, read-out: Estimated apparent Kd for FAD, apo-SdhA alone): 14.4 ± 1.7 µM
10 | O=C(O)CCC(=O)O [Succinate, succinate] | high levels | high levels | 0.7 | – | quite proficient | partially effective | EC50 (E. coli apo-SdhA; [11]): 1 µM; Initiation of flavinylation in Sulfolobus tokodaii [4]: proficient flavinylation
